What was measured:
[1] = target: T1, ASM (acid sphingomyelinase) (Mus musculus, UniProt Q04519); experiment: ASM concentration levels in plasma and brain tissue of APP/PS1 mice after feeding via drinking water; type: in vivo; details: 9.5 month-old APP/PS1 mice, 100 mg/kg/day via drinking water; versus unfed APP/PS1 mice
T1 construct: from tissue; host or cells: plasma and brain tissue of APP/PS1 transgenic mice (C57BL/6 background)
T1 sequence (Q04519 45-627): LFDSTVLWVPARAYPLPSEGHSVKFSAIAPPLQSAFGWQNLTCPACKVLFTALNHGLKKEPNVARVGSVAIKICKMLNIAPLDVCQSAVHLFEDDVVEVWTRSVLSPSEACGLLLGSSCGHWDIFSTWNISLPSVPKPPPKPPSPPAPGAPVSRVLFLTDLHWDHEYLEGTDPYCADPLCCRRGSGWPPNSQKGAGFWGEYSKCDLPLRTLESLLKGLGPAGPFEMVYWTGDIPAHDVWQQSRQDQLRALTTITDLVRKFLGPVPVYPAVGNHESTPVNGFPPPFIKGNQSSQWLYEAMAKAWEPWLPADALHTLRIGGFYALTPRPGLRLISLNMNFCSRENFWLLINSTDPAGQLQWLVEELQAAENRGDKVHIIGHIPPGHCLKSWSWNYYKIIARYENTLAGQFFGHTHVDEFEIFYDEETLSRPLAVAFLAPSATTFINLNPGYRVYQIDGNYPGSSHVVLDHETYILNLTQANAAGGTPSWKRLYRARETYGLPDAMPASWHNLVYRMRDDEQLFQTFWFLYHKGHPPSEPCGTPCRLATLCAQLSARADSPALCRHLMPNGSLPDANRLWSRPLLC
Description: IACUC (Kyungpook National University Institutional Animal Care and Use Committee) approved the present mouse experiment. A transgenic mouse line overexpressing APPswe (hAPP695swe) or PS1 (presenilin-1M146V) was used based on C57BL/6 mouse (Charles River, UK) (hereinafter, APP mouse: APPswe-overexpressing mouse, PS1 mouse: presenilin-1M146V overexpressing mouse; GlaxoSmithKline). To confirm the therapeutic effect of the novel ASM inhibitory compounds, the novel ASM inhibitory compound or AMI were fed via drinking water at a dose of 100 mg/kg/day to mice at 5.5 months of age. Three months after the feeding, behavioral analysis on the mice was performed, followed by sampling of mouse brain tissues (FIG. 3). The concentration levels of ASM were measured as follows. Specifically, a microliter mouse plasma, brain tissue and 3 μl of fibroblast samples were mixed with ASM activity buffer and stored at 37° C. 114 μl of ethanol was added to terminate the hydrolysis reaction, followed by centrifugation. 30 μl of the supernatant was transferred to a glass vial, of which 5 μl was applied to the UPLC system. The ASM concentration levels were quantified by comparison with Bodipy (aminoacetaldehyde) conjugated with sphingomyelin and ceramide. Extraction and quantification of the sphingomyelin and ceramide were performed by extracting lipids from known method samples and resuspending the dried lipid extract in 25 μl of 0.2% Igepal CA-630 (Sigma-Aldrich). Each lipid level was quantified using the UPLC system. Using an experimental animal model APP/PS1 mouse for Alzheimer's disease patients, ASM concentration levels in plasma and brain tissues were measured after administration of AMI, which is the most widely used as an ASM inhibitor, and the novel ASM inhibitory compound of the Chemical Formula 2.

[2] = target: T2, ASM (acid sphingomyelinase) (Homo sapiens, UniProt P17405); experiment: ASM activity in fibroblasts derived from Alzheimer's disease patients (PS1 fibroblasts); type: cell-based; design: dose or concentration left out as unconfirmed; details: PS1 fibroblasts with increased ASM activity; versus untreated PS1 fibroblasts
T2 construct: fibroblasts (PS1 fibroblasts) derived from Alzheimer's disease patients, followed by the measurement of the change of ASM activity; host or cells: human fibroblast cell lines (PS1, from Alzheimer's disease patients)
T2 sequence (P17405 47-631): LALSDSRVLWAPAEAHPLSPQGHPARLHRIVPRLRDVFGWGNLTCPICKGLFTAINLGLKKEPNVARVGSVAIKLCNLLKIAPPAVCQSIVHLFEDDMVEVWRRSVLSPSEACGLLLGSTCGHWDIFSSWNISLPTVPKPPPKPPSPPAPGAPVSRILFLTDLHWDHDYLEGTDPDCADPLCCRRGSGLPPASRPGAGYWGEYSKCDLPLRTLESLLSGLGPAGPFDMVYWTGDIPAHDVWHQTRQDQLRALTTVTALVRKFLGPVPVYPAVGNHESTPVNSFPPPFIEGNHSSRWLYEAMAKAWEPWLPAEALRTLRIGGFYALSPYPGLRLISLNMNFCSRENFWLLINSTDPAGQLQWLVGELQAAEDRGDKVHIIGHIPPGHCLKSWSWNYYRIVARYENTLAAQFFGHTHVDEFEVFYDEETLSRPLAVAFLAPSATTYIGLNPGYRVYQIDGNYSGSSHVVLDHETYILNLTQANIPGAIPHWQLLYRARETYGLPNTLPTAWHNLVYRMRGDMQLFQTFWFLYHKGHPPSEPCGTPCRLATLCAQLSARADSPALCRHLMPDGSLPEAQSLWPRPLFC
Description: Human fibroblast cell lines (normal and PS1) were obtained from Coriell Institute and cultured in DMEM containing 15% FBS under the condition of 5% CO2 at 37° C. Subsequently, the cell lines were treated with the ASM inhibitory compound of the Chemical Formula 1, amitriptyline (AMI) and FTY720, followed by measuring the change of ASM activity. The concentration levels of ASM were measured as follows. Specifically, a microliter mouse plasma, brain tissue and 3 μl of fibroblast samples were mixed with ASM activity buffer and stored at 37° C. 114 μl of ethanol was added to terminate the hydrolysis reaction, followed by centrifugation. 30 μl of the supernatant was transferred to a glass vial, of which 5 μl was applied to the UPLC system. The ASM concentration levels were quantified by comparison with Bodipy (aminoacetaldehyde) conjugated with sphingomyelin and ceramide. Extraction and quantification of the sphingomyelin and ceramide were performed by extracting lipids from known method samples and resuspending the dried lipid extract in 25 μl of 0.2% Igepal CA-630 (Sigma-Aldrich). Each lipid level was quantified using the UPLC system. In order to confirm the ASM inhibitory effect of the compound developed according to the present invention, the ASM inhibitory compound of the Chemical Formula 2, AMI and FTY720 were treated […] concentration, respectively, in the fibroblasts (PS1 fibroblasts) derived from Alzheimer's disease patients, followed by the measurement of the change of ASM activity.

APP/PS1 mice [3] = experiment: Amyloid-β deposition in brain of APP/PS1 mice (thioflavin S staining, Aβ40 and Aβ42 immunofluorescence); type: in vivo, mouse; details: 100 mg/kg/day via drinking water, versus APP/PS1 mice
Description: IACUC (Kyungpook National University Institutional Animal Care and Use Committee) approved the present mouse experiment. A transgenic mouse line overexpressing APPswe (hAPP695swe) or PS1 (presenilin-1M146V) was used based on C57BL/6 mouse (Charles River, UK) (hereinafter, APP mouse: APPswe-overexpressing mouse, PS1 mouse: presenilin-1M146V overexpressing mouse; GlaxoSmithKline).
(§1) To confirm the therapeutic effect of the novel ASM inhibitory compounds, the novel ASM inhibitory compound or AMI were fed via drinking water at a dose of 100 mg/kg/day to mice at 5.5 months of age. Three months after the feeding, behavioral analysis on the mice was performed, followed by sampling of mouse brain tissues (FIG. 3).
After fixing the cerebrum and hippocampus of the test mice, 0.5% thioflavin S (Sigma-Aldrich), anti-20G10 antibodies (Mouse, 1:1000) against Aβ, 42 and anti-G30 antibodies (rabbit, 1:1000) against Aβ, 40, anti-GFAP antibodies (rabbit, 1:500, DAKO) were cultured together. The above sites were analyzed using a laser scanning confocal microscope equipped with Fluoview SV1000 imaging software (Olympus FV1000, Japan) or an Olympus BX51 microscope. Percentage of area of stained area to total tissue area was quantified and analyzed using Metamorph software (Molecular Devices).
In order to confirm the effect of the novel ASM inhibitory compound of the Chemical Formula 2 on the lesion of Alzheimer's disease, the ASM inhibitory compound of the Chemical Formula 2 and AMI were administered orally for four months, respectively, as shown in FIG. 3.
To begin with, the profile of Aβ of Alzheimer's disease was identified. First, according to known methods in the art, the cerebral cortex and hippocampus of the mice were stained with thioflavin S (ThioS), confirming the fibrillary amyloid-β deposition. In addition, amyloid-β deposition was confirmed by carrying out the Aβ40 and Aβ42 immunofluorescence.

APP/PS1 mice [4] = experiment: Morris water maze (MWM), learning and memory in APP/PS1 mice; type: in vivo, mouse; details: 100 mg/kg/day via drinking water, versus unfed APP/PS1 mice
Description: as §1
Morris water maze (MWM) and fear conditioning experiments were conducted to identify potential effects on learning and memory. For MWM, the mice were learned the task four times a day for 10 days, followed by the removal of the platform at the 11th day and subsequently a probe trial. On the first day of the fear conditioning, the mice were placed in the conditioning chamber and subjected to sound stimulation (10 kHz, 70 dB) and electrical stimulation (0.3 mA, 1s). On the second day, their memory was checked without stimulation in the same conditioning chamber as on the first day. On the third day, memory tests were conducted for fear when only sound stimulation was given in another conditioning chamber. Open field tests and dark & light tests were conducted to assess activity and anxiety. In the open field test, the mice were placed in a square box for 10 minutes to measure their overall activity and time spent wandering the wall and center. In the dark & light test, the mice were placed in a rectangular box composed of a dark box and a bright box for 10 minutes to measure the time spent in each box, the number of round trips, and the time when the mice entered the bright box for the first time.
In order to determine the potential effect of the novel ASM inhibitory compound of the present invention on learning and cognition in the animal models of Alzheimer's disease, the MWM (Morris water maze) and the fear conditioning test were performed, respectively.

[5] = brain tissue immunofluorescence

- ASM concentration level in brain tissues [1]: remarkably low
- ASM concentration level in plasma [1]: remarkably low
- change of ASM activity [2]: markedly reduced
Structure (SMILES): CN(C)CCC=C1c2ccccc2CCc2ccccc21 [AMI, amitriptyline, reference compound]
- Aβ40 deposition (APP/PS1 mice [3]; [5]): significantly lower
- Aβ42 deposition (APP/PS1 mice [3]; [5]): significantly lower
- fibrillary Aβ deposition (thioflavin S) (APP/PS1 mice [3]; cerebral cortex and hippocampus): significantly lower
- spatial memory, cognitive and memory formation disability (APP/PS1 mice [4]): improved

Reference: US9724334B1, “Method for treating a neurodegenerative disease or depression comprising administering derivatives of 2-amino-2-(1-dodecyl-1H-1,2,3-triazol-4-yl)propane-1,3-diol” (Kyungpook National University Industry-Academic Cooperation …, priority 2016, dated 2017)
